Data as given in US5393897A, “Isolation and structure of spongistatins 5,7,8 and 9” (Arizona Board of Regents acting on behalf of Arizona State …, priority 1993, dated 1995).
≈ marks a conversion by molar mass, not a printed value. Like-named read-outs stand apart in the source and are kept apart here.

Legend:
[1] = system: 60 human tumor cell lines; test: NCI in vitro primary screen, panel of 60 human tumor cell lines; type: cell-based; conditions: for GI50: Homo sapiens
From the text: Only two hundred years ago, many diseases ravaged humankind. Many of these diseases now have been controlled or eradicated. In the development of the means to treat or control these diseases, work with the appropriate common experimental animals was of critical importance. With the various types of cancers, and with the HIV virus, such work is presently ongoing. The research for the treatment of various types of cancer is coordinated in the United States by the National Cancer Institute (NCI). NCI, as a government entity, has been charged with assisting anti-cancer research. To establish whether a substance has anti-cancer activity, NCI has established a variety of protocols, one of which involves testing the candidate substance against a cell line panel containing 60 human tumor cell lines. This protocol has been verified and is generally accepted throughout the scientific community. This protocol and the established statistical means of evaluating the results obtained therefrom have been fully described in the literature. See Principles & Practice of Oncology PPO Updates, Volume 3, Number 10, October 1989, by Michael R. Boyd, M.D., Ph.D., for an in depth description of the test protocol. The statistical analysis is explained in "Display and Analysis of Patterns of Differential Activity of Drugs Against Human Tumor Cell Lines: Development of Means Graph and COMPARE Algorithm" Journal of the National Cancer Institute Reports Vol. 81, No. 14, Pg. 1088, Jul. 14, 1989, by K. D. Paull et al. Both of these references are incorporated herein by this reference thereto. The effectiveness and validity of the NCI in vitro protocol continues to be verified.
^a All compounds were tested in quadruplicate at five different con-
entire panel of 60 human tumor cell lines comprising the NCI
^c Correlation coefficients from the Compare pattern-recognition
algorithm were calculated by computer using the TGI-centered
mean graph profiles of differential cellular sensitivities to 1, and
5. The TGI mean graph profile of 1 was used as the benchmark or
"seed" for all of the comparisons.

P388 = conditions: IP, Q1D × 9, female mice
[2] = system: 60 human tumor cell lines; conditions: Background on spongistatins from Spongia sp; cited from earlier work
[3] = system: P388 lymphocytic leukemia cell line; test: P388 lymphocytic leukemia cell line bioassay; type: cell-based; conditions: Mus musculus; PS (P388); pure compound; read-out: ED50 (the source's name)

SMILES	% ILS (increase in life span over controls) (P388; 40 μg/kg/dose)	potency in NCI panel [2]	IC50 [3]	also measured
C=C(Cl)/C=C/C(O)CC(=C)CC1OC2C(C)C(OC(=O)CC3CC(OC(C)=O)CC4(CC(C)(O)CC(CC(=C)C(C)C(OC(C)=O)C(C)C(=O)CC5CC(OC)CC6(CC(O)CC(/C=C\CCCC7OC(O)(CC(O)C7C)C2O)O6)O5)O4)O3)C1O (stereo not drawn) [spongistatin 1, reference compound]	-10%	one of the most extraordinarily potent substances presently known		GI50 ([1]; NCI 60 cell line panel, read-out: panel mean GI50): 0.1 nM; GI50 ([1]; quadruplicate, five concentrations, standard errors averaged less than 15% of means, read-out: Mean Panel GI50): 0.117 nM; Compare Correlation Coefficient ([1]; TGI-centered mean graph profiles, spongistatin 1 as seed): 1.00; correlation of mean-graph fingerprint with microtubule-interactive antimitotics ([1]; pattern-recognition analyses, data not shown): closely correlated; % ILS (increase in life span over controls) (P388; 25 μg/kg/dose): +33%
C=C(Cl)/C=C/[C@H](O)CC(=C)C[C@H]1OC2[C@@H](O)[C@]3(O)C[C@@H](O)[C@H](C)[C@H](CCC/C=C\[C@@H]4C[C@@H](O)C[C@]5(C[C@H](OC)CC(CC(=O)[C@@H](C)[C@H](OC(C)=O)[C@@H](C)C(=C)C[C@@H]6C[C@@](C)(O)C[C@]7(C[C@H](O)CC(CC(=O)O[C@@H]([C@@H]1O)[C@H]2C)O7)O6)O5)O4)O3 [spongistatin 3]		exceptionally potent		
C=C(Cl)/C=C/[C@H](O)CC(=C)C[C@H]1OC2[C@@H](O)[C@]3(O)C[C@@H](O)[C@H](C)[C@H](CCC/C=C\[C@@H]4C[C@@H](O)C[C@]5(C[C@H](OC)CC(CC(=O)[C@@H](C)[C@H](O)[C@@H](C)C(=C)C[C@@H]6C[C@@](C)(O)C[C@]7(C[C@H](OC(C)=O)CC(CC(=O)O[C@@H]([C@@H]1O)[C@H]2C)O7)O6)O5)O4)O3 [spongistatin 4]				% ILS (increase in life span over controls) (P388; 5 μg/kg/dose): +55%
C=C/C=C/C(O)CC(=C)CC1OC2C(C)C(OC(=O)CC3CC(OC(C)=O)CC4(CC(C)(O)CC(CC(=C)C(C)C(O)C(C)C(=O)CC5CC(OC)CC6(CC(O)CC(/C=C\CCCC7OC(O)(CC(O)C7C)C2O)O6)O5)O4)O3)C1O (stereo not drawn) [spongistatin 6]	+70%			
C=C/C=C/C(O)CC(=C)CC1OC2C(C)C(OC(=O)CC3CC(OC(C)=O)CC4(CC(C)(O)CC(C=C5COC(C(C)C(=O)CC6CC(OC)CC7(CC(O)CC(/C=C\CCCC8OC(O)(CC(O)C8C)C2O)O7)O6)C5C)O4)O3)C1O (stereo not drawn) [spongistatin 8]			0.8 ng/mL (≈ 0.698 nM)	
C=C(Cl)/C=C/C(O)CC(=C)CC1OC2C(C)C(OC(=O)CC3CC(OC(C)=O)CC4(CC(C)(O)CC(C=C5COC(C(C)C(=O)CC6CC(OC)CC7(CC(O)CC(/C=C\CCCC8OC(O)(CC(O)C8C)C2O)O7)O6)C5C)O4)O3)C1O (stereo not drawn) [spongistatin 9]			< 0.1 ng/mL	
